Source: patent US20190233884A1 (University of Southern California, priority 2016, published 2019)

System: patients with refractory metastatic colorectal cancer (mCRC)
Assay: PFS, OS and disease control in the training (evaluation) cohort of refractory mCRC patients receiving TAS-102 (n=52, Japan), by baseline characteristics, SNP genotype and toxicity
Type: in vivo, human
Conditions: for OS HR (95% CI)‡ / PFS HR (95% CI) ‡: multivariable; for OS HR (95% CI)† / PFS HR (95% CI) † / OS HR (95% CI) / PFS HR (95% CI): univariate
Protocol: All patients underwent the treatment in salvage-line setting. […]
(§1) Genomic DNA was extracted from peripheral whole blood in patients of all cohorts using the QIAmp Kit (Qiagen, Valencia, Calif., USA) according to the manufacturer's protocol (www.qiagen.com). The candidate SNPs were genotyped using PCR-based direct DNA sequence analysis by ABI 3100A Capillary Genetic Analyzer and Sequencing Scanner v1.0 (Applied Biosystems). Amplification of extracted DNA was carried out using both forward and reverse primers for each gene polymorphism as shown in Table 1. […] The investigators analyzing SNPs were blinded to the clinical data of the study patients.
The primary endpoint in this study was progression-free survival (PFS), and the secondary endpoints were overall survival (OS) and disease control rate (DCR). PFS was calculated from the date of starting treatment to the first observation of disease progression or death from any cause. If a patient had no disease progression or death, PFS was censored at the date of last follow up. OS was calculated from the date of starting treatment until the date of death from any cause or the date of the last follow-up, at which point OS was censored. The disease control rate (DCR) was defined as the proportion of patients who achieved a stable disease (SD) or […] according to RECISTv1.1. Chi-square test was used to examine the difference in baseline patient characteristics among the three cohorts. Allelic distribution of all SNPs by ethnicity for deviation from Hardy-Weinberg equilibrium and the allelic frequencies of SNPs were tested using the Chi-square tests with one degree of freedom. The associations between candidate SNPs and disease control, and toxicities were examined using contingency tables and Fisher's exact test. The associations of SNPs with PFS and OS were analysed using Kaplan-Meier curves and the log-rank test. Because the true mode of inheritance of candidate SNPs was not established yet, a codominant or dominant genetic model if appropriate was considered.
All patients underwent the treatment in salvage-line setting. […] In all patients, adverse events were graded according to the Common Terminology Criteria for Adverse Events, version 4.0. […]
as §1, with “tested” for “genotyped”, “Biosystems).” for “Biosystems). Amplification of extracted DNA was carried out using both forward and reverse primers for each gene polymorphism as shown in Table 1.”, “data.” for “data of the study patients.”
The primary endpoint in this study was progression-free survival (PFS), and the secondary endpoints were overall survival (OS) and disease control rate (DCR).

[1] = Che1 rs1564796 T/C and C/C grouped together
[2] = Che1 rs1564796 T/C and C/C grouped vs T/T
[3] = Evaluation cohort, Anemia grade <3
[4] = Evaluation cohort, Anemia grade ≥3
[5] = Evaluation cohort, Anemia grade ≥3 vs <3
[6] = Evaluation cohort, Anorexia grade <3
[7] = Evaluation cohort, Anorexia grade ≥3
[8] = Evaluation cohort, Anorexia grade ≥3 vs <3
[9] = Evaluation cohort, Diarrhea grade <3
[10] = Evaluation cohort, Diarrhea grade ≥3
[11] = Evaluation cohort, Diarrhea grade ≥3 vs <3
[12] = Evaluation cohort, Leukopenia grade <3
[13] = Evaluation cohort, Leukopenia grade ≥3
[14] = Evaluation cohort, Leukopenia grade ≥3 vs <3
[15] = Evaluation cohort, Nausea grade <3
[16] = Evaluation cohort, Nausea grade ≥3
[17] = Evaluation cohort, Nausea grade ≥3 vs <3
[18] = Evaluation cohort, Neutropenia grade <3
[19] = Evaluation cohort, Neutropenia grade ≥3
[20] = Evaluation cohort, Neutropenia grade ≥3 vs <3
[21] = FANCD2 rs6792811 G/A and G/G grouped together
[22] = FANCD2 rs6792811 G/A and G/G grouped vs A/A

Trifluridine/tipiracil [TAS-102]
OS HR (95% CI)‡ (CHEK2 rs22236142 G/C vs G/G): 0.55 (0.19, 1.58)
PFS HR (95% CI) ‡ (CHEK2 rs22236142 G/C vs G/G): 1.13 (0.55, 2.34)
OS HR (95% CI)† (CHEK2 rs22236142 G/C vs G/G): 0.78 (0.29, 2.11)
PFS HR (95% CI) † (CHEK2 rs22236142 G/C vs G/G): 1.43 (0.72, 2.84)
OS median, months (95% CI) (CHEK2 rs22236142 G/G): 8.1 (4.4, 14.8+) months
PFS median, months (95% CI) (CHEK2 rs22236142 G/G): 2.9 (1.6, 4.9) months
OS median, months (95% CI) (Che1 rs1045056 T/C): 12.4 (5.3, 12.4+) months
PFS median, months (95% CI) (Che1 rs1045056 T/C): 2.1 (1.2, 4.2) months
OS HR (95% CI)‡ (Che1 rs1045056 T/C vs T/T): 0.60 (0.19, 1.85)
PFS HR (95% CI) ‡ (Che1 rs1045056 T/C vs T/T): 1.70 (0.80, 3.64)
OS HR (95% CI)† (Che1 rs1045056 T/C vs T/T): 0.55 (0.18, 1.63)
PFS HR (95% CI) † (Che1 rs1045056 T/C vs T/T): 1.25 (0.61, 2.57)
OS median, months (95% CI) (Che1 rs1045056 T/T): 7.2 (5.4, 15.6+) months
PFS median, months (95% CI) (Che1 rs1045056 T/T): 2.9 (1.9, 3.5) months
OS median, months (95% CI) [1]: 12.4 (5.3, 12.4+) months
PFS median, months (95% CI) [1]: 2.1 (1.2, 4.6) months
OS HR (95% CI)‡ [2]: 0.60 (0.19, 1.87)
PFS HR (95% CI) ‡ [2]: 1.41 (0.65, 3.07)
OS HR (95% CI)† [2]: 0.56 (0.19, 1.68)
PFS HR (95% CI) † [2]: 1.17 (0.57, 2.40)
OS median, months (95% CI) (Che1 rs1564796 T/T): 7.2 (5.4, 15.6+) months
PFS median, months (95% CI) (Che1 rs1564796 T/T): 2.9 (2.0, 3.5) months
OS median, months (95% CI) [3]: 8.3 (5.7, 15.6+) months
PFS median, months (95% CI) [3]: 2.5 (2.0, 3.4) months
OS median, months (95% CI) [4]: 6.3 (2.0, 14.8+) months
PFS median, months (95% CI) [4]: 3.4 (1.5, 6.0+) months
OS HR (95% CI) [5]: 1.87 (0.74, 4.74)
PFS HR (95% CI) [5]: 0.70 (0.32, 1.53)
OS median, months (95% CI) [6]: 8.1 (5.7, 12.4+) months
PFS median, months (95% CI) [6]: 2.9 (2.1, 3.4) months
OS median, months (95% CI) [7]: 8.7 (1.4, 15.6+) months
PFS median, months (95% CI) [7]: 2.7 (0.9, 11.3) months
OS HR (95% CI) [8]: 0.85 (0.27, 2.69)
PFS HR (95% CI) [8]: 0.67 (0.27, 1.69)
OS median, months (95% CI) [9]: 8.3 (6.3, 12.4) months
PFS median, months (95% CI) [9]: 2.5 (2.0, 3.4) months
OS median, months (95% CI) [10]: 5.7 (2.0, 14.8+) months
PFS median, months (95% CI) [10]: 2.9 (1.8, 6.0+) months
OS HR (95% CI) [11]: 1.49 (0.49, 4.53)
PFS HR (95% CI) [11]: 0.88 (0.35, 2.26)
OS median, months (95% CI) [12]: 8.3 (4.9, 15.6+) months
PFS median, months (95% CI) [12]: 2.5 (1.9, 3.5) months
OS median, months (95% CI) [13]: 8.1 (5.7, 10.7+) months
PFS median, months (95% CI) [13]: 3.4 (1.6, 4.6) months
OS HR (95% CI) [14]: 0.73 (0.26, 2.01)
PFS HR (95% CI) [14]: 0.93 (0.45, 1.90)
OS median, months (95% CI) [15]: 8.1 (6.3, 14.8+) months
PFS median, months (95% CI) [15]: 3.3 (2.3, 3.7) months
OS median, months (95% CI) [16]: 5.7 (2.7, 12.4) months
PFS median, months (95% CI) [16]: 1.9 (1.6, 2.7) months
OS HR (95% CI) [17]: 1.58 (0.65, 3.83)
PFS HR (95% CI) [17]: 1.24 (0.62, 2.49)
OS median, months (95% CI) [18]: 6.3 (3.4, 15.6+) months
PFS median, months (95% CI) [18]: 2.1 (1.8, 3.0) months
OS median, months (95% CI) [19]: 8.3 (6.3, 14.8+) months
PFS median, months (95% CI) [19]: 3.4 (1.8, 4.9) months
OS HR (95% CI) [20]: 0.59 (0.24, 1.43)
PFS HR (95% CI) [20]: 0.68 (0.37, 1.28)
OS median, months (95% CI) (FANCD2 rs2272125 T/G): 7.2 (2.7, 7.8+) months
PFS median, months (95% CI) (FANCD2 rs2272125 T/G): 2.8 (1.6, 6.6+) months
OS HR (95% CI)‡ (FANCD2 rs2272125 T/G vs T/T): 1.38 (0.39, 4.90)
PFS HR (95% CI) ‡ (FANCD2 rs2272125 T/G vs T/T): 0.91 (0.35, 2.35)
OS HR (95% CI)† (FANCD2 rs2272125 T/G vs T/T): 1.66 (0.47, 5.83)
PFS HR (95% CI) † (FANCD2 rs2272125 T/G vs T/T): 0.98 (0.38, 2.51)
OS median, months (95% CI) (FANCD2 rs2272125 T/T): 8.3 (5.7, 15.6+) months
PFS median, months (95% CI) (FANCD2 rs2272125 T/T): 2.7 (2.1, 3.4) months
OS median, months (95% CI) (FANCD2 rs6792811 A/A): 8.7 (5.4, 14.8+) months
PFS median, months (95% CI) (FANCD2 rs6792811 A/A): 2.9 (2.1, 4.2) months
OS median, months (95% CI) [21]: 7.2 (3.3, 15.6+) months
PFS median, months (95% CI) [21]: 2.1 (1.5, 3.4) months
OS HR (95% CI)‡ [22]: 1.17 (0.48, 2.87)
PFS HR (95% CI) ‡ [22]: 1.43 (0.74, 2.74)
OS HR (95% CI)† [22]: 1.27 (0.52, 3.08)
PFS HR (95% CI) † [22]: 1.29 (0.68, 2.47)
Median OS (months) (JPN TAS-102 cohort, XRCC3 rs861539 G/G (n = 35)): 6.3 months
OS median, months (95% CI) (PCNA rs25406 A/A): 8.7 (5.3, 10.7+) months
PFS median, months (95% CI) (PCNA rs25406 A/A): 2.5 (1.4, 4.6) months
OS HR (95% CI)‡ (PCNA rs25406 A/A vs G/G): 0.55 (0.17, 1.84)
PFS HR (95% CI) ‡ (PCNA rs25406 A/A vs G/G): 0.65 (0.28, 1.51)
OS HR (95% CI)† (PCNA rs25406 A/A vs G/G): 0.67 (0.21, 2.19)
PFS HR (95% CI) † (PCNA rs25406 A/A vs G/G): 0.89 (0.39, 2.03)
OS median, months (95% CI) (PCNA rs25406 Any A): 8.1 (5.7, 15.6+) months
PFS median, months (95% CI) (PCNA rs25406 Any A): 3.3 (2.1, 3.5) months
OS HR (95% CI)‡ (PCNA rs25406 Any A vs G/G): 0.54 (0.22, 1.35)
PFS HR (95% CI) ‡ (PCNA rs25406 Any A vs G/G): 0.53 (0.27, 1.06)
OS HR (95% CI)† (PCNA rs25406 Any A vs G/G): 0.64 (0.26, 1.56)
PFS HR (95% CI) † (PCNA rs25406 Any A vs G/G): 0.74 (0.39, 1.42)
OS median, months (95% CI) (PCNA rs25406 G/A): 8.1 (5.7, 15.6+) months
PFS median, months (95% CI) (PCNA rs25406 G/A): 3.4 (1.9, 3.7) months
OS HR (95% CI)‡ (PCNA rs25406 G/A vs G/G): 0.54 (0.19, 1.52)
PFS HR (95% CI) ‡ (PCNA rs25406 G/A vs G/G): 0.46 (0.21, 1.02)
